Key:
[1] = molecular target: T1, human GPR139 receptor (Homo sapiens, UniProt Q6DWJ6); assay: GPR139 Competition Binding (membrane-based, tritium-labeled ligand); details: T-REx-CHO membranes with human GPR139; 6.5 nM tritium-labeled ligand; 11-point curve, 30 μM maximum concentration; read-out: GPR139 Binding Affinity (pKi) (converted)
T1 construct: expressed in transfected cells; host or cells: T-REx-CHO (Thermo Fisher Scientific), doxycycline-induced
T1 sequence (Q6DWJ6 1-353): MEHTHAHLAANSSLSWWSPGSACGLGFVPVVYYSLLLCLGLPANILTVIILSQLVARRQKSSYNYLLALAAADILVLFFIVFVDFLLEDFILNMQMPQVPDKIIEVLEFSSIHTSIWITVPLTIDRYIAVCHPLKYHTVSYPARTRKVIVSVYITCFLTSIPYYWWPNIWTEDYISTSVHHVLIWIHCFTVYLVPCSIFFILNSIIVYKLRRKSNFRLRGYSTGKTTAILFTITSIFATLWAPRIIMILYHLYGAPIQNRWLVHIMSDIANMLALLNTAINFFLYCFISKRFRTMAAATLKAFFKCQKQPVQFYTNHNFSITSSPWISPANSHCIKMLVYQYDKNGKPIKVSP
Description: OPR139 Competition Binding
This membrane-based assay measures the ability of compounds to competitively bind GPR139 in stably transfected TREx™-CHO membranes. To prepare the membranes, T-REx™-CHO (Thermo Fisher Scientific®) cells are stably expressed with human GPR139 receptor, whose expression is controlled by a tetracycline-inducible element. The cells are cultured in medium containing F-12K nutrient mixture-Kaighn's modification, 10% tetracycline-free FBS, Blasticidin S HCl (10 μg/mL) and Hygromycin B (200 μg/mL). GPR139 receptor expression is induced for 18 hours with 2 μg/mL doxycycline (Sigma D9891) in growth media. After addition of doxycycline, cells are harvested in PBS and pelleted by centrifugation for 5 minutes at 200×G. Liquid is aspirated off and cells are resuspended in ice cold lysis buffer (20 mM HEPES/5 mM EDTA pH 7.4/1× Roche® protease inhibitor). Samples are vortexed until homogenous and then placed on ice and homogenized using a Dounce homogenizer at 50% power (3 cycles, 10 strokes per cycle). Lysate is centrifuged at 4° C. for 10 minutes in a tabletop Sorvall® centrifuge at 2000×G. The supernatant is recovered and centrifuged in a Sorvall® ultracentrifuge at 35,000 rpm for 30 minutes at 4° C. The supernatant is discarded, and the remaining pellet resuspended in lysis buffer (20 mM HEPES/0.1 mM EGTA/Roche® protease inhibitor). Membrane protein concentration is determined using Thermo Fisher® BCA quantification kit and is aliquoted into microtubes. Tubes are snap frozen in liquid nitrogen and stored at −80° C. Prior to use, the membranes are removed from cold storage, thawed to room temperature, vortexed until homogenous and diluted in assay buffer (20 mM HEPES pH 7.3, 5 mM MgCl2, 1 mM CaCl2), 1× Thermo Scientific® Halt™ protease inhibitor (78429)).
The assay is run in 96-well, polypropylene, v-bottom plates (Greiner Bio-One® 651201). Test compound in DMSO is added to the wells of each plate (11-point dose response curve, 30 μM maximum concentration, 3-fold serial dilution). A fixed amount of tritium-labeled ligand, (S)-2-(2,3-dimethyl-7-oxothieno[2,3-d]pyridazin-6(7H)-yl)-N-(1-(4-methoxyphenyl-2-t)propan-2-yl)acetamide (Quotient Bioresearch) in assay buffer (6.5 nM assay concentration) is added to each well of the assay plate, which is then agitated on a plate shaker for 30 seconds. Next, a fixed amount of membranes in assay buffer (2 μg membranes) is added to each well of the assay plate, which is then spun for 30 seconds at 300 rpm in a tabletop Eppendorf centrifuge, and then incubated at room temperature for 20 minutes. Using a Tomtec harvester, the contents of the assay plate are transferred to Filtermat A (PerkinElmer® No. 1450-421) which prior to use is pre-soaked in 0.5% PEI (Sigma P3143) for 3 hours and dried at room temperature overnight. Following transfer, the Filtermat is washed 5 times with cold wash buffer (20 mM HEPES pH 7.3, 100 mM NaCl). The Filtermat is dried using a microwave oven and placed in a sample bag (PerkinElmer® No. 1450-432) with a scintillator sheet (PerkinElmer® No. 1450-411). The scintillator sheet is melted to the Filtermat using a heat block set to 65° C., placed in a MicroBeta® cartridge and read using a MicroBeta® scintillation counter. Binding curves are generated with a four-parameter logistic equation using GraphPad Prism® 6 and the inhibition constant Ki is reported as pKi.

[2] = molecular target: T1, human GPR139 receptor; assay: Measurement of GPR139 Activation Via Calcium Signaling (FLIPR, T-REx-CHO cells); assay type: cell-based; details: T-REx-CHO cells stably expressing human GPR139, 11-point dose response, 10 μM maximum concentration, read-out: GPR139 Potency (pEC50) (converted)
Procedure, shortened: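 Calcium flux read by FLIPR for 1 min after adding compounds (11 concentrations, maximum 10 μM) to doxycycline-induced (2 μg/mL, 17 h) T-REx-CHO cells expressing human GPR139. Cells dye-loaded 40 min at 37 °C in HBSS, 1 mM HEPES pH 7.4 with probenecid; activation reported as pEC50 from four-parameter logistic fit.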

| SMILES | Ki [1] [nM] | EC50 [2] [nM] |
| --- | --- | --- |
| CC(C)c1nn(CC(=O)N[C@@H](C)c2ccc(C(F)(F)F)cc2)c(=O)c2c1cnn2C(C)(C)C [Example 12, (S)-2-(1-(tert-butyl)-4-isopropyl-7-oxo-1,7-dihydro-6/1-pyrazolo[3,4-d]pyridazin-6-yl)-N-(1-(4-(trifluoromethyl)phenyl)ethyl)acetamide] | 33.9 | 2140 |
| Cc1cc(C)c([C@H](C)NC(=O)Cn2ncc3c(c(C)cn3C3CC3)c2=O)c(C)c1 [Example 64, (S)-2-(1-cyclopropyl-3-methyl-4-oxo-1,4-dihydro-5H-pyrrolo[2,3-d]pyridazin-5-yl)-N-(1-mesitylethyl)acetamide] | 2.09 | 120 |
| Cc1ccc([C@H](C)NC(=O)Cn2nc(C)c3c(cnn3C)c2=O)cc1 [Example 74, (S)-2-(1,7-dimethyl-4-oxo-1,4-dihydro-5H-pyrazolo[3,4-d]pyridazin-5-yl)-N-(1-(p-tolyl)ethyl)acetamide] | 2450 | 93.3 |
| Cc1nn(CC(=O)N[C@@H](C)c2ccc(C(F)(F)F)cn2)c(=O)c2c1c(C)nn2C [Example 102, (S)—N-(1-(5-(trifluoromethyl)pyridin-2-yl)ethyl)-2-(1,3,4-trimethyl-7-oxo-1,7-dihydro-6H-pyrazolo[3,4-d]pyridazin-6-yl)acetamide] | 15100 | 209 |
| Cc1cc([C@H](C)NC(=O)Cn2ncc3c(c(C)nn3C3CC3)c2=O)ccc1F [Example 134, (S)-2-(1-cyclopropyl-3-methyl-4-oxo-1,4-dihydro-5H-pyrazolo[3,4-d]pyridazin-5-yl)-N-(1-(4-fluoro-3-methylphenyl)ethyl)acetamide] | 589 | 24 |
| Cc1ccc(C)c([C@H](C)NC(=O)Cn2ncc3c(c(C)nn3C3CC3)c2=O)c1 [Example 26, (S)-2-(1-cyclopropyl-3-methyl-4-oxo-1,4-dihydro-5H-pyrazolo[3,4-d]pyridazin-5-yl)-N-(1-(2,5-dimethylphenyl)ethyl)acetamide] | 38900 | 933 |
| Cc1nn(C2CC2)c2c(=O)n(CC(=O)N3CCCC3c3ccc(Cl)cc3)ncc12 (stereo not shown) [Example 85, 6-(2-(2-(4-chlorophenyl)pyrrolidin-1-yl)-2-oxoethyl)-1-cyclopropyl-3-methyl-1,6-dihydro-7H-pyrazolo[3,4-d]pyridazin-7-one] | 55 | 741 |
| Cc1ccc([C@H](C)NC(=O)Cn2nc(C)c3c(cnn3C3CC3)c2=O)cc1 [Example 80, (S)-2-(1-cyclopropyl-7-methyl-4-oxo-1,4-dihydro-5H-pyrazolo[3,4-d]pyridazin-5-yl)-N-(1-(p-tolyl)ethyl)acetamide] | 1660 | 251 |
| Cc1ccc([C@H](C)NC(=O)Cn2ncc3c(cnn3C(C)C)c2=O)cc1 [Example 89, (S)-2-(1-isopropyl-4-oxo-1,4-dihydro-5H-pyrazolo[3,4-d]pyridazin-5-yl)-N-(1-(p-tolyl)ethyl)acetamide] | 2190 | 44.7 |
| COc1ccc([C@H](C)NC(=O)Cn2nc(C)c3c(c(C)nn3C(C)C)c2=O)cc1 [Example 57, (S)-2-(1-isopropyl-3,7-dimethyl-4-oxo-1,4-dihydro-5H-pyrazolo[3,4-d]pyridazin-5-yl)-N-(1-(4-methoxyphenyl)ethyl)acetamide] | 3090 | 132 |
| Cc1nn(C2CC2)c2cnn(CC(=O)N[C@@H](C)c3cccc(F)c3F)c(=O)c12 [Example 30, (S)-2-(1-cyclopropyl-3-methyl-4-oxo-1,4-dihydro-5H-pyrazolo[3,4-d]pyridazin-5-yl)-N-(1-(2,3-difluorophenyl)ethyl)acetamide] | 257 | 72.4 |
| Cc1ccc([C@H](C)NC(=O)Cn2nc(C)c3c(C)nn(C(C)C)c3c2=O)cc1 [Example 21, (S)-2-(1-isopropyl-3,4-dimethyl-7-oxo-1,7-dihydro-6H-pyrazolo[3,4-d]pyridazin-6-yl)-N-(1-(p-tolyl)ethyl)acetamide] | 28.2 | 115 |

The remaining lines, values ahead:

| Ki [1] [nM] | EC50 [2] [nM] | SMILES |
| --- | --- | --- |
| 3470 | 63.1 | Cc1nn(CC(=O)N[C@@H](C)c2ccc(OC(F)(F)F)cc2)c(=O)c2cnn(C)c12 [Example 73, (S)-2-(1,7-dimethyl-4-oxo-1,4-dihydro-5H-pyrazolo[3,4-d]pyridazin-5-yl)-N-(1-(4-(trifluoromethoxy)phenyl)ethyl)acetamide] |
| 2340 | 617 | Cc1nn(CC(=O)N[C@@H](C)c2ccc(C(F)(F)F)cc2)c(=O)c2cnn(C(C)C)c12 [Example 75, (S)-2-(1-isopropyl-7-methyl-4-oxo-1,4-dihydro-5H-pyrazolo[3,4-d]pyridazin-5-yl)-N-(1-(4-(trifluoromethyl)phenyl)ethyl)acetamide] |
| 23.4 | 69.2 | Cc1nn(CC(=O)N[C@@H](C)c2ccc(OC(F)(F)F)cc2)c(=O)c2c(C3CC3)nn(C)c12 [Example 118, (S)-2-(3-cyclopropyl-1,7-dimethyl-4-oxo-1,4-dihydro-5H-pyrazolo[3,4-d]pyridazin-5-yl)-N-(1-(4-(trifluoromethoxy)phenyl)ethyl)acetamide] |
| 162 | 37.2 | Cc1nn(C)c2cnn(CC(=O)N[C@@H](C)c3ccc(OC(F)(F)F)cc3)c(=O)c12 [Example 47, (S)-2-(1,3-dimethyl-4-oxo-1,4-dihydro-5H-pyrazolo[3,4-d]pyridazin-5-yl)-N-(1-(4-(trifluoromethoxy)phenyl)ethyl)acetamide] |
| 339 | 74.1 | COc1ccc([C@H](C)NC(=O)Cn2ncc3c(c(C4CC4)nn3C)c2=O)cc1 [Example 116, (S)-2-(3-cyclopropyl-1-methyl-4-oxo-1,4-dihydro-5H-pyrazolo[3,4-d]pyridazin-5-yl)-N-(1-(4-methoxyphenyl)ethyl)acetamide] |
| 251 | 38.9 | Cc1ccc([C@H](C)NC(=O)Cn2ncc3c(c(C)nn3C)c2=O)cc1 [Example 36, (S)-2-(1,3-dimethyl-4-oxo-1,4-dihydro-5H-pyrazolo[3,4-d]pyridazin-5-yl)-N-(1-(p-tolyl)ethyl)acetamide] |
| 178 | 151 | Cc1ccc([C@H](C)NC(=O)Cn2nc(C)c3c(c(C)nn3C)c2=O)cc1 [Example 113, (S)—N-(1-(p-tolyl)ethyl)-2-(1,3,7-trimethyl-4-oxo-1,4-dihydro-5H-pyrazolo[3,4-d]pyridazin-5-yl)acetamide] |
| 6030 | 70.8 | C[C@H](NC(=O)Cn1ncc2c(cnn2C)c1=O)c1ccc(C(F)(F)F)cc1 [Example 34, (S)-2-(1-methyl-4-oxo-1,4-dihydro-5H-pyrazolo[3,4-d]pyridazin-5-yl)-N-(1-(4-(trifluoromethyl)phenyl)ethyl)acetamide] |

From US12370192B2, “Azole-fused pyridazin-3(2H)-one derivatives” (TAKEDA PHARMACEUTICAL COMPANY LIMITED, priority 2019, dated 2025)
